# Data as given in ChEMBL document CHEMBL3124743, “Imaging evaluation of 5HT2C agonists, [(11)C]WAY-163909 and [(11)C]vabicaserin, formed by Pictet-Spengler cyclization” (J Med Chem, 2014).
# Key:
# Brain [1] = assay: Drug uptake in Papio anubis assessed as retention time in brain at 2.33 mCi, iv by PET imaging; format: ADME, organism-based
# Brain [2] = assay: Drug uptake in Sprague-Dawley rat assessed as retention time in brain at 0.303 mCi, iv by PET imaging; format: ADME, organism-based
# Brain [3] = assay: Drug uptake in Sprague-Dawley rat in regions outside brain at 0.303 mCi, iv by PET imaging; format: ADME, organism-based; conditions: in vivo
# Brain [4] = assay: Drug uptake in Papio anubis assessed as maximal uptake in brain at 2.33 mCi, iv after 20 mins of injection by PET imaging; format: ADME, organism-based; conditions: in vivo
# [5] = Octanol-water partition coefficient, log D of the compound at pH 7.4; format: physicochemical
# [6] = Fraction unbound in Papio Anubis plasma at 2.33 mCi, iv by PET imaging; format: ADME, organism-based
# Brain [7] = assay: Drug uptake in Sprague-Dawley rat assessed as retention time in brain at 0.99 mCi, iv by PET imaging; format: ADME, organism-based
# [8] = biological target: T1, 5-hydroxytryptamine receptor 2C (Homo sapiens, UniProt P28335); assay: Displacement of [125I]DOI from human 5-HT2C receptor
# T1 sequence (P28335 whole entry): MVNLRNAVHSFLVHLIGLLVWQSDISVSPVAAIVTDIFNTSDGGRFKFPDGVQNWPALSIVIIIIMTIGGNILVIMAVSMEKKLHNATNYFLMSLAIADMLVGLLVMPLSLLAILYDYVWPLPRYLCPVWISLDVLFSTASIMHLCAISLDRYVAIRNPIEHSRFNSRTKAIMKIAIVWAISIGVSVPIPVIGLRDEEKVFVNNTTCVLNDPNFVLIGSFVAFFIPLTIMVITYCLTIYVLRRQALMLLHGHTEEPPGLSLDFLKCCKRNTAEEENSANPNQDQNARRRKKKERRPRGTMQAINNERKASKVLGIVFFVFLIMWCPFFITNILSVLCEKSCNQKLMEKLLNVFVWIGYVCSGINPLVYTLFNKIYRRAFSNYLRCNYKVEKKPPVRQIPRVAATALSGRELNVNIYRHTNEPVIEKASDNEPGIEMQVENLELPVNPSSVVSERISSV
structure (smiles),measurement,setting,value
c1cc2c3c(c1)[C@H]1CCC[C@H]1N3CCN[11CH2]2,Retention_time,Brain [1],80 min
same,Retention_time,Brain [2],60 min
same,Drug uptake,Brain [3],Active
same,Drug uptake,Brain [4],Active
same,logD,[5],1.53
same,fraction unbound,[6],0.265
c1cc2c3c(c1)[C@H]1CCC[C@H]1CN3CCN[11CH2]2,Retention_time,Brain [7],60 min
c1cc2c3c(c1)[C@H]1CCC[C@H]1CN3CCNC2 [VABICASERIN],Ki,[8],3 nM
